Results as given in patent US20100298141A1, “SUBSTITUTED PYRIDINE N-OXIDE HERBICIDES” (E. I. DU PONT DE NEMOURS AND COMPANY, priority 2007, published 2010).

What was measured:
corn = assay: Test A pre-/postemergence greenhouse test; format: in vivo, Zea mays; conditions: for Plant response rating, Corn: 0 to 100 scale where 0 is no effect and 100 is complete control; for Corn plant response rating: 0 to 100 scale
Summary of the method: (§1)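 Untreated controls served as the reference for visual injury ratings taken about ten days after spraying. The non-phytotoxic solvent/surfactant formulation was applied preemergence to seeded loam and sand and postemergence to plants two to ten cm high.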

rice = assay: Test C flooded paddy test; format: in vivo, Oryza sativa; conditions: Flood
Summary of the method: (§2)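 Ratings were visual and made relative to untreated controls after 13 to 15 greenhouse days.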

crabgrass = assay: Test C pre-/postemergence test; format: in vivo, Digitaria sanguinalis
Summary of the method: (§3)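 Compounds in a non-phytotoxic solvent with surfactant applied preemergence to seeded pots and, at the same time, postemergence to plants 2–18 cm tall (1- to 4-leaf stage). Paddy tests: pots flooded to 3 cm, compound applied into the water, depth held throughout.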

duck salad = assay: Test C flooded paddy test; format: in vivo, Heteranthera limosa; conditions: Flood
Summary of the method: as §2

catchweed bedstraw = assay: Test C pre-/postemergence test; format: in vivo, Galium aparine
Summary of the method: as §3

bermudagrass = assay: Test C pre-/postemergence test; format: in vivo, Cynodon dactylon
Summary of the method: as §3

redroot pigweed = assay: Test A pre-/postemergence greenhouse test; format: in vivo, Amaranthus retroflexus; conditions: for Plant response rating, Pigweed: 0 to 100 scale where 0 is no effect and 100 is complete control; for Pigweed plant response rating: 0 to 100 scale
Summary of the method: as §1

kochia = assay: Test C pre-/postemergence test; format: in vivo, Kochia scoparia
Summary of the method: as §3

Surinam grass = assay: Test C pre-/postemergence test; format: in vivo, Brachiaria decumbens
Summary of the method: as §3

velvetleaf = assay: Test C pre-/postemergence test; format: in vivo, Abutilon theophrasti
Summary of the method: as §3

wheat = assay: Test C pre-/postemergence test; format: in vivo, Triticum aestivum
Summary of the method: as §3

blackgrass = assay: Test C pre-/postemergence test; format: in vivo, Alopecurus myosuroides
Summary of the method: as §3

eastern black nightshade = assay: Test C pre-/postemergence test; format: in vivo, Solanum ptycanthum
Summary of the method: as §3

[1] = tested on: common (oilseed) sunflower; assay: Test C pre-/postemergence test; format: in vivo, Helianthus annuus
Summary of the method: as §3

pigweed = assay: Test C pre-/postemergence test; format: in vivo, Amaranthus retroflexus
Summary of the method: as §3

barnyardgrass = assay: Test C flooded paddy test; format: in vivo, Echinochloa crus-galli; conditions: Flood
Summary of the method: as §2

wild oat = assay: Test C pre-/postemergence test; format: in vivo, Avena fatua
Summary of the method: as §3

[2] = Postemergence, 500 g ai/ha, 0 is no effect, 100 is complete control
[3] = Preemergence, 125 g ai/ha, 0 no effect, 100 complete control
[4] = 62 g ai/ha, scale 0 to 100 (0 no effect, 100 complete control)
[5] = 250 g ai/ha, scale 0 to 100, 0 no effect, 100 complete control, 13 to 15 days
[6] = 62 g ai/ha, Preemergence, scale 0 to 100
[7] = 125 g ai/ha, preemergence, scale 0 (no effect) to 100 (complete control)
[8] = Preemergence, 31 g ai/ha, scale 0 to 100 (0 no effect, 100 complete control)
[9] = preemergence, 250 g ai/ha, scale 0 (no effect) to 100 (complete control)

**Q.** For Cc1cc[n+]([O-])c(S(=O)(=O)Cc2c(C(F)(F)F)nn(C)c2OCC(F)F)c1 [Compound 94], which “Plant response rating, Corn” value (corn; Postemergence, 125 g ai/ha) is on record?
**A.** 40

**Q.** What about the “Corn plant response rating” value (corn; [2]) of the same compound?
**A.** 80

**Q.** What about the “Corn plant response rating” value (corn; [3]) of the same compound?
**A.** 20

**Q.** What about the “Plant response rating, Corn” value (corn; Preemergence, 500 g ai/ha) of the same compound?
**A.** 70

**Q.** What about the “Plant response rating, Rice” value (rice; [4]) of the same compound?
**A.** 0

**Q.** What about the “Plant response rating, Rice” value (rice; [5]) of the same compound?
**A.** 20

**Q.** And the “Crabgrass, Large plant response rating” value (crabgrass; [6])?
**A.** 98

**Q.** What about the “Crabgrass, Large plant response rating” value (crabgrass; [7]) of the same compound?
**A.** 100

**Q.** What about the “Plant response rating, Crabgrass, Large” value (crabgrass; [8]) of the same compound?
**A.** 20

**Q.** And the “Crabgrass, Large plant response rating” value (crabgrass; [9])?
**A.** 100

**Q.** And the “Plant response rating, Ducksalad” value (duck salad; [4])?
**A.** 0

**Q.** What about the “Plant response rating, Ducksalad” value (duck salad; [5]) of the same compound?
**A.** 75

**Q.** And the “Galium plant response rating” value (catchweed bedstraw; [6])?
**A.** 100

**Q.** What about the “Galium plant response rating” value (catchweed bedstraw; [7]) of the same compound?
**A.** 100

**Q.** What about the “Plant response rating, Galium” value (catchweed bedstraw; [8]) of the same compound?
**A.** 95

**Q.** What about the “Galium plant response rating” value (catchweed bedstraw; [9]) of the same compound?
**A.** 100

**Q.** What about the “Bermudagrass plant response rating” value (bermudagrass; 62 g ai/ha, Preemergence, scale 0 to 100 (0 no effect, 100 complete control)) of the same compound?
**A.** 100

**Q.** And the “Bermudagrass plant response rating” value (bermudagrass; [7])?
**A.** 100

**Q.** What about the “Plant response rating, Bermudagrass” value (bermudagrass; [8]) of the same compound?
**A.** 90

**Q.** What about the “Bermudagrass plant response rating” value (bermudagrass; [9]) of the same compound?
**A.** 100

**Q.** What about the “Plant response rating, Pigweed” value (redroot pigweed; Postemergence, 125 g ai/ha) of the same compound?
**A.** 60

**Q.** What about the “Pigweed plant response rating” value (redroot pigweed; [2]) of the same compound?
**A.** 80

**Q.** And the “Pigweed plant response rating” value (redroot pigweed; [3])?
**A.** 100

**Q.** And the “Plant response rating, Pigweed” value (redroot pigweed; Preemergence, 500 g ai/ha)?
**A.** 100

**Q.** And the “Kochia plant response rating” value (kochia; [6])?
**A.** 100

**Q.** What about the “Kochia plant response rating” value (kochia; [7]) of the same compound?
**A.** 100

**Q.** What about the “Plant response rating, Kochia” value (kochia; [8]) of the same compound?
**A.** 85

**Q.** What about the “Kochia plant response rating” value (kochia; [9]) of the same compound?
**A.** 100

**Q.** What about the “Surinam Grass plant response rating” value (Surinam grass; [6]) of the same compound?
**A.** 90

**Q.** What about the “Surinam Grass plant response rating” value (Surinam grass; [7]) of the same compound?
**A.** 90

**Q.** What about the “Plant response rating, Surinam Grass” value (Surinam grass; [8]) of the same compound?
**A.** 90

**Q.** What about the “Surinam Grass plant response rating” value (Surinam grass; [9]) of the same compound?
**A.** 100

**Q.** What about the “Velvetleaf plant response rating” value (velvetleaf; [6]) of the same compound?
**A.** 40

**Q.** What about the “Velvetleaf plant response rating” value (velvetleaf; [7]) of the same compound?
**A.** 100

**Q.** And the “Plant response rating, Velvetleaf” value (velvetleaf; [8])?
**A.** 0

**Q.** What about the “Velvetleaf plant response rating” value (velvetleaf; [9]) of the same compound?
**A.** 100

**Q.** What about the “Wheat plant response rating” value (wheat; [6]) of the same compound?
**A.** 60

**Q.** And the “Wheat plant response rating” value (wheat; [7])?
**A.** 80

**Q.** And the “Plant response rating, Wheat” value (wheat; [8])?
**A.** 30

**Q.** And the “Wheat plant response rating” value (wheat; [9])?
**A.** 80

**Q.** What about the “Blackgrass plant response rating” value (blackgrass; [6]) of the same compound?
**A.** 95

**Q.** What about the “Blackgrass plant response rating” value (blackgrass; [7]) of the same compound?
**A.** 100

**Q.** And the “Plant response rating, Blackgrass” value (blackgrass; [8])?
**A.** 70

**Q.** And the “Blackgrass plant response rating” value (blackgrass; [9])?
**A.** 100

**Q.** What about the “Nightshade plant response rating” value (eastern black nightshade; [6]) of the same compound?
**A.** 55

**Q.** And the “Nightshade plant response rating” value (eastern black nightshade; [7])?
**A.** 100

**Q.** And the “Plant response rating, Nightshade” value (eastern black nightshade; [8])?
**A.** 50

**Q.** And the “Nightshade plant response rating” value (eastern black nightshade; [9])?
**A.** 100

**Q.** What about the “Sunflower plant response rating” value [1, 6] of the same compound?
**A.** 0

**Q.** What about the “Sunflower plant response rating” value [1, 7] of the same compound?
**A.** 45

**Q.** What about the “Plant response rating, Sunflower” value [1, 8] of the same compound?
**A.** 0

**Q.** And the “Sunflower plant response rating” value [1, 9]?
**A.** 80

**Q.** And the “Pigweed plant response rating” value (pigweed; [6])?
**A.** 90

**Q.** And the “Pigweed plant response rating” value (pigweed; [7])?
**A.** 100

**Q.** What about the “Plant response rating, Pigweed” value (pigweed; [8]) of the same compound?
**A.** 60

**Q.** What about the “Pigweed plant response rating” value (pigweed; [9]) of the same compound?
**A.** 100

**Q.** And the “Plant response rating, Barnyardgrass” value (barnyardgrass; [4])?
**A.** 0

**Q.** And the “Plant response rating, Barnyardgrass” value (barnyardgrass; [5])?
**A.** 0

**Q.** And the “Oat, Wild plant response rating” value (wild oat; [6])?
**A.** 65

**Q.** What about the “Oat, Wild plant response rating” value (wild oat; [7]) of the same compound?
**A.** 65

**Q.** And the “Plant response rating, Oat, Wild” value (wild oat; [8])?
**A.** 35

**Q.** And the “Oat, Wild plant response rating” value (wild oat; [9])?
**A.** 98
